From patent US20220007651A1, “BACILLUS THURINGIENSIS STRAINS AND METHODS FOR CONTROLLING PESTS” (priority 2018, published 2022)

B1: Cry1Ia2: Cry toxin, SEQ ID NO: 9, expressed in Escherichia coli BL21, applied as whole broth (protein, listed as Bacillus thuringiensis)
chain: MKLKNQDKHQSFSSNAKVDKISTDSLKNETDIELQNINHEDCLKMSEYENVEPFVSASTIQTGIGIAGKILGTLGVPFAGQVASLYSFILGELWPKGKNQWEIFMEHVEEIINQKISTYARNKALTDLKGLGDALAVYHDSLESWVGNRNNTRARSVVKSQYIALELMFVQKLPSFAVSGEEVPLLPIYAQAANLHLLLLRDASIFGKEWGLSSSEISTFYNRQVERAGDYSDHCVKWYSTGLNNLRGTNAESWVRYNQFRRDMTLMVLDLVALFPSYDTQMYPIKTTAQLTREVYTDAIGTVHPHPSFTSTTWYNNNAPSFSAIEAAVVRNPHLLDFLEQVTIYSLLSRWSNTQYMNMWGGHKLEFRTIGGTLNISTQGSTNTSINPVTLPFTSRDVYRTESLAGLNLFLTQPVNGVPRVDFHWKFVTHPIASDNFYYPGYAGIGTQLQDSENELPPEATGQPNYESYSHRLSHIGLISASHVKALVYSWTHRSADRTNTIEPNSITQIPLVKAFNLSSGAAVVRGPGFTGGDILRRTNTGTFGDIRVNINPPFAQRYRVRIRYASTTDLQFHTSINGKAINQGNFSATMNRGEDLDYKTFRTVGFTTPFSFLDVQSTFTIGAWNFSSGNEVYIDRIEFVPVEVTYEAEYDFEKAQEKVTALFTSTNPRGLKTDVKDYHIDQVSNLVESLSDEFYLDEKRELFEIVKYAKQLHIERNM
B2: Cry2Ab1: Cry toxin, SEQ ID NO: 10, expressed in Escherichia coli BL21, applied as whole broth (protein, listed as Bacillus thuringiensis)
chain: MNSVLNSGRTTICDAYNVAAHDPFSFQHKSLDTVQKEWTEWKKNNHSLYLDPIVGTVASFLLKKVGSLVGKRILSELRNLIFPSGSTNLMQDILRETEKFLNQRLNTDTLARVNAELTGLQANVEEFNRQVDNFLNPNRNAVPLSITSSVNTMQQLFLNRLPQFQMQGYQLLLLPLFAQAANLHLSFIRDVILNADEWGISAATLRTYRDYLKNYTRDYSNYCINTYQSAFKGLNTRLHDMLEFRTYMFLNVFEYVSIWSLFKYQSLLVSSGANLYASGSGPQQTQSFTSQDWPFLYSLFQVNSNYVLNGFSGARLSNTFPNIVGLPGSTTTHALLAARVNYSGGISSGDIGASPFNQNFNCSTFLPPLLTPFVRSWLDSGSDREGVATVTNWQTESFETTLGLRSGAFTARGNSNYFPDYFIRNISGVPLVVRNEDLRRPLHYNEIRNIASPSGTPGGARAYMVSVHNRKNNIHAVHENGSMIHLAPNDYTGFTISPIHATQVNNQTRTFISEKFGNQGDSLRFEQNNTTARYTLRGNGNSYNLYLRVSSIGNSTIRVTINGRVYTATNVNTTTNNDGVNDNGARFSDINIGNVVASSNSDVPLDINVTLNSGTQFDLMNIMLVPTNISPLY

Key:
Lepidopteran pests = details: Broderick et al., 2000; cited from earlier work
[1] = system: Spodoptera exigua Hübner (beet armyworm); experiment: Insecticidal assay, second instars on 48-well agar substrate plates; type: in vivo
Description: Zwittermicin A was partially purified from a strain derived from Bacillus thuringiensis strain NRRL B-67688. After growing the strain in a soy-based medium, the whole broth was centrifuged and the supernatant removed. The supernatant was passed through a 3 kDa filter to separate the zwittermicin A from larger molecules including any Cry toxins. The Vip3Aa11 protein was produced in the expression strain of Escherichia coli BL21 and applied to insect larvae as the E. coli whole broth culture (WB) at concentrations of 0.1%, 1%, and 10%. Treatment groups included Vip3Aa11 only (“no Zwa”); Vip3Aa11 with zwittermicin A (“1×Zwa); and Vip3Aa11 with concentrated zwittermicin A (“2×Zwa”) containing twice as much zwittermicin. Concentrations of zwittermicin A and Vip3Aa11 were adjusted by adding deionized water to prepare the appropriate dilutions. Control treatments included zwittermicin A (“1×Zwa”) alone, concentrated zwittermicin A alone (“2×Zwa”), untreated control, and a positive control containing 1000 ppm of a commercially available biological control agent active against Lepidoptera.
To evaluate the insecticidal activity of each treatment, second instars of Spodoptera exigua Hυbner (beet armyworm) were grown on 48-well plates containing an agar substrate similar to that described in Marrone et al., (1985), “Improvements in Laboratory Rearing of the Southern Corn Rootworm, Diabrotica undecimpuncta howardi Barber (Coleoptera: Chrysomelidae), on an Artificial Diet and Corn,” J. Econ. Entomol. 78: 290-293. Each treatment was applied to the agar substrate and a second instar was then placed in the well. After several days, insect development and survival were evaluated. Insect development scores were rated according to the following scale: 1=severely stunted; 2=highly stunted, minimal growth; 3=slightly smaller than untreated control; 4=same size as untreated control. […]
The experiment conducted in Example 3 was repeated with Cry1Ab1, Cry1Ia2, or Cry2Ab1 expressed in Escherichia coli BL21 and applied to insect larvae as the E. coli whole broth culture (WB) at concentrations of 0.2%, 4%, 10%, and 50%. The insect mortality score is based on the following scale: 4=0-25% mortality, 3=26-50% mortality, 2=51-79% mortality, 1=80-100% mortality. All percentages are adjusted according to any mortality observed with untreated control Spodoptera exigua Hυbner (beet armyworm) larvae. […] All reported mortality scores are the average of three replicate measurements.
The experiment in Example 3 was also repeated with Cry1Ca1 and Cry1Da1, which were expressed in Escherichia coli BL21 and applied to insect larvae as the E. coli whole broth culture (WB) at various concentrations. Instead of insect mortality rates, LC50, which in this case is the percentage of whole broth needed to cause 50% mortality, without zwittermicin or with various concentrations of zwittermicin, was determined.

[2] = Cry toxin applied alone, E. coli whole broth 0.2%, 4%, 10%, 50%
[3] = Cry toxin in combination with zwittermicin A (1×Zwa), FIGS. 4A-4C

Molecule	insect mortality [1, 2]	insect mortality [1, 3]	also measured
NC(=O)NCC(NC(=O)[C@@H](O)[C@H](O)[C@H](N)C(O)CC(O)C(N)CO)C(N)=O (some centres unmarked) [zwittermicin A]			insecticidal activity on its own (Lepidopteran pests): little or no observable insecticidal activity; insect mortality ([1]; zwittermicin A alone, 1×Zwa): generally had no observable effect on insect mortality; insect mortality ([1]; zwittermicin alone at the concentrations used in the LC50 experiment): generally had no observable effect on insect mortality; effect on insect growth or survival ([1]; zwittermicin alone, 1×Zwa or 2×Zwa): no significant effect on insect growth or survival
Cry1Ab1: Cry toxin expressed in Escherichia coli BL21, applied as whole broth	demonstrated insect mortality at the higher application rates	significant increase in insect mortality	
Cry1Da1: Cry toxin, SEQ ID NO: 17, expressed in Escherichia coli BL21, applied as whole broth			~LC50 ([1]; No Zwa): >10 percentage of whole broth
B1	little observable effect on insect mortality	significant increase in insect mortality	
B2	demonstrated insect mortality at the higher application rates	significant increase in insect mortality	
